Each structure is given as a SMILES string. Read-outs that look alike come from different tables or passages of the source.

The subject of the experiment is test plant species. Kind of experiment: Post-emergent herbicidal activity test (greenhouse, foliar spray, visual growth reduction). The class given is in vivo. The note with it: post-emergence, 336 h, 140 g ai/ha. The essentials:
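Scoring used a 0 to 100 percent visual scale of growth reduction against solvent-treated controls, read 14 d after spraying. Applications went onto plants at first or second true leaf stage, 187 L/ha, with crop oil concentrate and X-77 surfactant in the carrier. Post-treatment watering was by subirrigation to avoid wash-off.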

Setting [1] is: ECHCG: barnyardgrass (Echinochloa crus-galli), 14 days after application, read-out: Visual Growth Reduction (%) 14 Days After Application, ECHCG.
[2] abbreviates: IPOHE: ivy-leaf morning glory (Ipomoea hederacea), 14 days after application, read-out: Visual Growth Reduction (%) 14 Days After Application, IPOHE.
Setting [3] is: KCHSC: kochia (Bassia scoparia), 14 days after application, read-out: Visual Growth Reduction (%) 14 Days After Application, KCHSC.
The mark [4] stands for this setting: ORYSA: rice (Oryza sativa), 14 days after application, read-out: Visual Growth Reduction (%) 14 Days After Application, ORYSA.
The mark [5] stands for this setting: SETFA: giant foxtail (Setaria faberi), 14 days after application, read-out: Visual Growth Reduction (%) 14 Days After Application, SETFA.
Where [6] appears, read: SORVU: grain sorghum (Sorghum vulgare), 14 days after application, read-out: Visual Growth Reduction (%) 14 Days After Application, SORVU.
[7] abbreviates: STEME: common chickweed (Stellaria media), 14 days after application, read-out: Visual Growth Reduction (%) 14 Days After Application, STEME.
Where [8] appears, read: TRZAS: wheat, spring (Triticum aestivum), 14 days after application, read-out: Visual Growth Reduction (%) 14 Days After Application, TRZAS.
Setting [9] is: blackgrass (Alopecurus myosuroides), 14 Days After Application, read-out: Visual Growth Reduction (%) ALOMY.
Setting [10] is: canada thistle (Cirsium arvense), 14 Days After Application, read-out: Visual Growth Reduction (%) CIRAR.
Where [11] appears, read: crabgrass (Digitaria sanguinalis), 14 Days After Application, read-out: Visual Growth Reduction (%) DIGSA.
Where [12] appears, read: lambsquarters (Chenopodium album), 14 Days After Application, read-out: Visual Growth Reduction (%) CHEAL.
Setting [13] is: redroot pigweed (Amaranthus retroflexus), 14 Days After Application, read-out: Visual Growth Reduction (%) AMARE.
[14] abbreviates: wild oat (Avena fatua), 14 Days After Application, read-out: Visual Growth Reduction (%) AVEFA.
The mark [15] stands for this setting: yellow nutsedge (Cyperus esculentus), 14 Days After Application, read-out: Visual Growth Reduction (%) CYPES.

Regarding `C=Cc1cc(C(F)(F)F)cc(Cl)c1-c1ccc(Cl)c(C(=O)OC)n1` [F216, methyl 3-chloro-6-(2-chloro-4-(trifluoromethyl)-6-vinylphenyl)picolinate], the pest or weed control at 140 g/ha lay within 0 to 29% under setting [1]; 95 to 100% under setting [2]; 30 to 44% under setting [3]; 0 to 29% under setting [4]; 60 to 74% under setting [5]; 60 to 74% under setting [6]. Moreover, the pest or weed control at 140 g/ha by setting is: under setting [7], 0 to 29%; under setting [8], 45 to 59%; under setting [9], 0 to 29%; under setting [10], 60 to 74%; under setting [11], 0 to 29%; under setting [12], 95 to 100%. The pest or weed control at 140 g/ha is, setting by setting: under setting [13], 30 to 44%; under setting [14], 0 to 29%; under setting [15], 0 to 29%.
Turning to `COC(=O)c1nc(-c2ccc(C(F)(F)F)c(N)c2)ccc1Cl` [F218, methyl 6-(3-amino-4-(trifluoromethyl)phenyl)-3-chloropicolinate], the pest or weed control at 140 g/ha is, setting by setting: under setting [1], 0 to 29%; under setting [2], 0 to 29%; under setting [3], 0 to 29%; under setting [4], 0 to 29%; under setting [5], 0 to 29%; under setting [6], 0 to 29%. The pest or weed control at 140 g/ha lay within 0 to 29% under setting [7]; 0 to 29% under setting [8]; 0 to 29% under setting [9]; 30 to 44% under setting [10]; 0 to 29% under setting [11]; 60 to 74% under setting [12]. Further, the pest or weed control at 140 g/ha is, setting by setting: under setting [13], 0 to 29%; under setting [14], 0 to 29%; under setting [15], 0 to 29%.
On to `COC(=O)c1nc(-c2ccccc2)c(F)cc1Cl` [F219, Methyl 3-chloro-5-fluoro-6-phenylpicolinate], for which the pest or weed control at 140 g/ha fell in the range of 0 to 29% under setting [1]; 45 to 59% under setting [2]; 0 to 29% under setting [3]; 0 to 29% under setting [4]; 0 to 29% under setting [5]; 60 to 74% under setting [6]. Further, the pest or weed control at 140 g/ha was 0 to 29% under setting [7]; 0 to 29% under setting [8]; 0 to 29% under setting [9]; 0 to 29% under setting [10]; 30 to 44% under setting [11]; 45 to 59% under setting [12]. In addition, the pest or weed control at 140 g/ha is, setting by setting: under setting [13], 0 to 29%; under setting [14], 0 to 29%; under setting [15], 0 to 29%.
On to `COC(=O)c1nc(-c2ccc(OC(F)F)cc2F)c(F)cc1Cl` [F221, Methyl 3-chloro-6-(4-(difluoromethoxy)-2-fluorophenyl)-5-fluoropicolinate], for which the pest or weed control at 140 g/ha fell in the range of 85 to 94% under setting [1]; 95 to 100% under setting [2]; 85 to 94% under setting [3]; 0 to 29% under setting [4]; 85 to 94% under setting [5]; 95 to 100% under setting [6]. For the same molecule, the pest or weed control at 140 g/ha reads like this: under setting [7], 0 to 29%; under setting [8], 75 to 84%; under setting [9], 75 to 84%; under setting [10], 95 to 100%; under setting [11], 95 to 100%; under setting [12], 95 to 100%. The pest or weed control at 140 g/ha under setting [13] fell in the range of 95 to 100%, the pest or weed control at 140 g/ha under setting [14] is 75 to 84% and the pest or weed control at 140 g/ha under setting [15] lay within 75 to 84%.
`C=Cc1cc(C(F)(F)F)cc(Cl)c1-c1ccc(Cl)c(C(=O)O)n1` [F222, 3-Chloro-6-(2-chloro-4-(trifluoromethyl)-6-vinylphenyl) picolinic acid]: the pest or weed control at 140 g/ha is, setting by setting: under setting [1], 60 to 74%; under setting [2], 95 to 100%; under setting [3], 45 to 59%; under setting [4], 0 to 29%; under setting [5], 30 to 44%; under setting [6], 75 to 84%. The pest or weed control at 140 g/ha under setting [7] was 0 to 29%; the pest or weed control at 140 g/ha under setting [8] is 45 to 59%; the pest or weed control at 140 g/ha under setting [9] fell in the range of 0 to 29%; the pest or weed control at 140 g/ha under setting [10] was in the range of 85 to 94%; the pest or weed control at 140 g/ha under setting [11] fell in the range of 75 to 84%; the pest or weed control at 140 g/ha under setting [12] is 75 to 84%. Besides, the pest or weed control at 140 g/ha is, setting by setting: under setting [13], 75 to 84%; under setting [14], 0 to 29%; under setting [15], 0 to 29%.
Regarding `COc1cc(C(F)(F)F)cc(Cl)c1-c1ccc(Cl)c(C(=O)O)n1` [F223, 3-Chloro-6-(2-chloro-6-methoxy-4-(trifluoromethyl)phenyl) picolinic acid], the pest or weed control at 140 g/ha by setting is: under setting [1], 75 to 84%; under setting [2], 95 to 100%; under setting [3], 95 to 100%; under setting [4], 30 to 44%; under setting [5], 85 to 94%; under setting [6], 85 to 94%. The pest or weed control at 140 g/ha is, setting by setting: under setting [7], 60 to 74%; under setting [8], 75 to 84%; under setting [9], 0 to 29%; under setting [10], 95 to 100%; under setting [11], 60 to 74%; under setting [12], 95 to 100%. For the same molecule, the pest or weed control at 140 g/ha by setting is: under setting [13], 95 to 100%; under setting [14], 60 to 74%; under setting [15], 45 to 59%.
For `O=C(O)c1nc(-c2c(Cl)cc(C(F)(F)F)cc2[N+](=O)[O-])ccc1Cl` [F224, 3-Chloro-6-(2-chloro-6-nitro-4-(trifluoromethyl)phenyl)picolinic acid], the pest or weed control at 140 g/ha by setting is: under setting [1], 0 to 29%; under setting [2], 95 to 100%; under setting [3], 45 to 59%; under setting [4], 45 to 59%; under setting [5], 45 to 59%; under setting [6], 60 to 74%. Besides, the pest or weed control at 140 g/ha under setting [7] fell in the range of 0 to 29%; the pest or weed control at 140 g/ha under setting [8] was 0 to 29%; the pest or weed control at 140 g/ha under setting [9] lay in the range of 0 to 29%; the pest or weed control at 140 g/ha under setting [10] lay in the range of 45 to 59%; the pest or weed control at 140 g/ha under setting [11] lay in the range of 75 to 84%; the pest or weed control at 140 g/ha under setting [12] lay in the range of 95 to 100%. In addition, the pest or weed control at 140 g/ha runs as follows: under setting [13], 85 to 94%; under setting [14], 0 to 29%; under setting [15], 0 to 29%.
For the molecule `O=C(O)c1nc(-c2nc(Cl)c(C(F)(F)F)cc2Cl)ccc1Cl` [F225, 3′,5,6′-Trichloro-5'-(trifluoromethyl)-[2,2′-bipyridine]-6-carboxylic acid], the pest or weed control at 140 g/ha under setting [1] lay within 95 to 100%; the pest or weed control at 140 g/ha under setting [2] was in the range of 95 to 100%; the pest or weed control at 140 g/ha under setting [3] is 95 to 100%; the pest or weed control at 140 g/ha under setting [4] is 85 to 94%; the pest or weed control at 140 g/ha under setting [5] was in the range of 95 to 100%; the pest or weed control at 140 g/ha under setting [6] is 95 to 100%. The pest or weed control at 140 g/ha under setting [7] fell in the range of 45 to 59%; the pest or weed control at 140 g/ha under setting [8] was 75 to 84%; the pest or weed control at 140 g/ha under setting [9] was 45 to 59%; the pest or weed control at 140 g/ha under setting [10] lay within 85 to 94%; the pest or weed control at 140 g/ha under setting [11] was in the range of 95 to 100%; the pest or weed control at 140 g/ha under setting [12] fell in the range of 95 to 100%. Also, the pest or weed control at 140 g/ha under setting [13] was in the range of 95 to 100%, the pest or weed control at 140 g/ha under setting [14] lay within 95 to 100% and the pest or weed control at 140 g/ha under setting [15] was in the range of 45 to 59%.
With `O=C(O)c1nc(-c2ccc(OC(F)(F)F)cc2Cl)ccc1Cl` [F226, 3-Chloro-6-(2-chloro-4-4-(trifluoromethoxy)phenyl)picolinic acid], the pest or weed control at 140 g/ha is, setting by setting: under setting [1], 60 to 74%; under setting [2], 95 to 100%; under setting [3], 60 to 74%; under setting [4], 0 to 29%; under setting [5], 85 to 94%; under setting [6], 85 to 94%. Moreover, the pest or weed control at 140 g/ha is 0 to 29% under setting [7]; 45 to 59% under setting [8]; 45 to 59% under setting [9]; 85 to 94% under setting [10]; 95 to 100% under setting [11]; 95 to 100% under setting [12]. Also, the pest or weed control at 140 g/ha under setting [13] lay in the range of 60 to 74%, the pest or weed control at 140 g/ha under setting [14] lay in the range of 45 to 59% and the pest or weed control at 140 g/ha under setting [15] was in the range of 0 to 29%.
